# Results as given in patent publication US12528802B2, “Heterocyclic compound” (Takeda Pharmaceutical Company Limited, priority 2019, dated 2026).
# Target: T1, glucosylceramide synthase (Homo sapiens, UniProt Q16739)
# T1 construct: made in house; host or cells: Expi293F cells (transient expression, pcDNA3.3-TOPO vector); microsome fraction used as enzyme source
# T1 sequence (Q16739 1-394): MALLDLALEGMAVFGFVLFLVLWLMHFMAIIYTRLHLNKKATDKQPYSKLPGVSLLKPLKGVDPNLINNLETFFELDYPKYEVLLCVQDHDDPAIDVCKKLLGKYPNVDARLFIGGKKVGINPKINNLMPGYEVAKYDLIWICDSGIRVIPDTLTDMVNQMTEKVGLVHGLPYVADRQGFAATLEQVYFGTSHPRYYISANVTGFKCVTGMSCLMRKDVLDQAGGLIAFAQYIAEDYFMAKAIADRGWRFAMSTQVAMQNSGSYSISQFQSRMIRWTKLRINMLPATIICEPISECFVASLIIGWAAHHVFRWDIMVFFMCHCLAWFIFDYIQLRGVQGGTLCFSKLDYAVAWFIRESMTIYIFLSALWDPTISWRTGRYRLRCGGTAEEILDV
# Test: Glucosylceramide synthase (GCS) enzyme assay, microsome fraction, C8 glucosylceramide quantified by Rapidfire MS/MS
# Format: biochemical
# Conditions: test compound 10 μM; 1.7 μM UDP-glucose, 3 μM C8 ceramide; room temperature 60 min
# Protocol: Glucosylceramide Synthase (GCS) Assay
# In enzyme assay, a microsome fraction obtained by transient expression by Expi293F™ cells (catalog number: A14527, Thermo Fisher Scientific) was used as a glucosylceramide synthase source. Liposomal C8 ceramide and UDP-glucose were used as substrates. […] After the enzymatic reaction, the analysis was performed with Rapidfire MS/MS (API-4000™, SCIEX), and C8 glucosylceramide was quantified to evaluate the inhibitory activity of the test compound against glucosylceramide synthase activity.
# PcDNA3.3TOPO vector (catalog number: K830001, Thermo Fisher Scientific) into which the human GCS gene was inserted was introduced into Expi293F™ Cells (catalog number: A14527, Thermo Fisher Scientific) by using ExpiFectamine™ 293 Transfection Kit (catalog number: A14525, Thermo Fisher Scientific). The cultured cells were dissolved in D-PBS (catalog number: 048-29805, Fuji Film Wako Pure Chemical Industries, Ltd.) containing 1 mM PMSF, and the solution was allowed to stand on ice for 30 minutes, and then subjected to cell disruption (homogenized). The disruption solution was centrifuged at 10,000×g for 20 minutes at 4° C., and the obtained supernatant was centrifuged at 142,400×g for 60 minutes at 4° C. The obtained precipitate was resuspended in a D-PBS solution containing 1 mM PMSF, and homogenized again to prepare as a microsome fraction. Protein quantification was performed by the CBB method.
# A 1 mM compound solution prepared by dissolving the test compound in DMSO was added to a 384-well plate by 100 nL so that the final concentration of the test compound was 10 μM. Next, a substrate solution consisting of 3.4 μM UDP-glucose and 6 μM C8 ceramide was added by 5 μL, followed by an enzyme solution consisting of a 25 μg/mL microsome fraction by 5 μL. C8 ceramide was prepared from liposomes composed of 15 mol % C8 ceramide and 85 mol % dioleoyl phosphatidylcholine (1,2-dioleoyl-sn-glycero-3-phosphocholine: DOPC). The enzymatic reaction was carried out in a solution consisting of 20 mM tris-hydrochloric acid buffer (pH 7.5), 0.01% Tween 20, 0.01% bovine serum albumin and 1 mM dithiothreitol at room temperature for 60 min. Then, a solution consisting of 75% isopropanol and 1% formic acid containing 0.25 μM N-Octadecanoyl-D35-psichosine (catalog number: 1914, Matreya) as an internal standard substance was added by 60 μL to stop the enzymatic reaction. 5 μL of the centrifugal supernatant of the obtained reaction product was analyzed by Rapidfire MS/MS (Agilent Technologies) using API-4000™ (SCIEX), and the C8 glucosylceramide was quantified to evaluate the inhibitory activity of the test compound against the glucosylceramide synthase activity. The inhibitory activity of the test compound was evaluated when the C8 glucosylceramide level in the enzyme-free solution was considered as 100% inhibitory and the enzyme activity of the DMSO group in the absence of the compound was considered as 0% inhibitory.
row,SMILES,GCS enzyme inhibitory rate at 10 μM (%) (% of control)
1,"O=C1c2ccnc(-c3ccc(F)cc3OCC(F)(F)F)c2CN1c1ccc(C(O)C(F)F)cc1 (single isomer, unassigned) [Example 279, (R or S)-2-[4-(2,2-difluoro-1-hydroxyethyl)phenyl]-4-[4-fluoro-2-(2,2,2-trifluoroethoxy)phenyl]-2,3-dihydro-1H-pyrrolo[3,4-c]pyridin-1-one]",99
2,"O=C1c2ccnc(-c3ccc(F)cc3OCC(F)(F)F)c2CN1c1ccc(C(O)C(F)(F)F)cc1 (single isomer, unassigned) [Example 286, (R or S)-4-[4-fluoro-2-(2,2,2-trifluoroethoxy)phenyl]-2-[4-(2,2,2-trifluoro-1-hydroxyethyl)phenyl]-2,3-dihydro-1H-pyrrolo [3,4-c]pyridin-1-one]",96
3,"O=C1c2ccnc(-c3ccc(F)cc3OCC(F)(F)F)c2CN1c1ccc(C2(O)CCOC2)cn1 (single isomer, unassigned) [Example 301, (R or S)-4-[4-fluoro-2-(2,2,2-trifluoroethoxy)phenyl]-2-[5-(3-hydroxyoxolan-3-yl)pyridin-2-yl]-2,3-dihydro-1H-pyrrolo [3,4-c]pyridin-1-one]",97

# Same assay, conditions: test compound 10 μM; 1.7 μM UDP-glucose, 3 μM C8 ceramide; room temperature 60 min; read-out: GCS enzyme inhibitory rate at 10 μM (%) (% of control)
row,SMILES,inhibition at 10 µM [%]
1,"O=C1c2ccnc(-c3ccc(F)cc3OCC(F)(F)F)c2CN1c1ccc(C(O)C(F)(F)F)cc1 (single isomer, unassigned) [Example 285, (R or S)-4-[4-fluoro-2-(2,2,2-trifluoroethoxy)phenyl]-2-[4-(2,2,2-trifluoro-1-hydroxyethyl)phenyl]-2,3-dihydro-1H-pyrrolo [3,4-c]pyridin-1-one]",97
2,"O=C1c2ccnc(-c3ccc(F)cc3OCC(F)(F)F)c2CN1c1ccc(C2(O)CCOC2)cn1 (single isomer, unassigned) [Example 300, (R or S)-4-[4-fluoro-2-(2,2,2-trifluoroethoxy)phenyl]-2-[5-(3-hydroxyoxolan-3-yl)pyridin-2-yl]-2,3-dihydro-1H-pyrrolo [3,4-c]pyridin-1-one]",98
3,"CC(O)(c1ccc(N2Cc3c(ccnc3-c3ccc(F)cc3OCC(F)(F)F)C2=O)cc1)C(F)F (single isomer, unassigned) [Example 311, (R or S)-2-[4-(1,1-difluoro-2-hydroxypropan-2-yl)phenyl]-4-[4-fluoro-2-(2,2,2-trifluoroethoxy)phenyl]-2,3-dihydro-1H-pyrrolo[3,4-c]pyridin-1-one]",100
4,"CC(O)(c1ccc(N2Cc3c(ccnc3-c3ccccc3OCC(F)(F)F)C2=O)cc1)C(F)F (single isomer, unassigned) [Example 315, (R or S)-2-[4-(1,1-difluoro-2-hydroxypropan-2-yl)phenyl]-4-[2-(2,2,2-trifluoroethoxy)phenyl]-2,3-dihydro-1H-pyrrolo[3,4-c]pyridin-1-one]",100
5,"COc1ccccc1-c1nccc2c1CN(c1ccc(F)cc1)C2=O [Example 1, 2-(4-fluorophenyl)-4-(2-methoxyphenyl)-2,3-dihydro-1H-pyrrolo[3,4-c]pyridin-1-one]",78
6,"COc1ccccc1-c1nccc2c1CN(c1ccc(OC(F)(F)F)cc1)C2=O [Example 3, 4-(2-methoxyphenyl)-2-[4-(trifluoromethoxy)phenyl]-2,3-dihydro-1H-pyrrolo[3,4-c]pyridin-1-one]",98
7,"COc1ccccc1-c1nccc2c1CN(c1ccc(C3CC3)cc1)C2=O [Example 4, 2-(4-cyclopropylphenyl)-4-(2-methoxyphenyl)-2,3-dihydro-1H-pyrrolo[3,4-c]pyridin-1-one]",99
8,"COc1ccccc1-c1nccc2c1CN(c1ccc(Oc3ccccc3)cc1)C2=O [Example 5, 4-(2-methoxyphenyl)-2-(4-phenoxyphenyl)-2,3-dihydro-1H-pyrrolo[3,4-c]pyridin-1-one]",100
9,"COc1ccccc1-c1nccc2c1CN(c1ccc(C(F)(F)F)cc1)C2=O [Example 6, 4-(2-methoxyphenyl)-2-[4-(trifluoromethyl)phenyl]-2,3-dihydro-1H-pyrrolo[3,4-c]pyridin-1-one]",95
10,"COc1cc(F)ccc1-c1nccc2c1CN(c1ccc(F)cc1)C2=O [Example 7, 4-(4-fluoro-2-methoxyphenyl)-2-(4-fluorophenyl)-2,3-dihydro-1H-pyrrolo[3,4-c]pyridin-1-one]",70
11,"O=C1c2ccnc(-c3ccc(F)cc3OCC(F)(F)F)c2CN1c1ccc(F)cc1 [Example 13, 2-(4-fluorophenyl)-4-[4-fluoro-2-(2,2,2-trifluoroethoxy)phenyl]-2,3-dihydro-1H-pyrrolo[3,4-c]pyridin-1-one]",63
12,"O=C1c2ccnc(-c3ccc(F)cc3OCC(F)F)c2CN1c1ccc(F)cc1 [Example 16, 4-[2-(2,2-difluoroethoxy)-4-fluorophenyl]-2-(4-fluorophenyl)-2,3-dihydro-1H-pyrrolo[3,4-c]pyridin-1-one]",73
13,"COc1ccccc1-c1nccc2c1CN(c1ccc(C#N)cc1)C2=O [Example 18, 4-[4-(2-methoxyphenyl)-1-oxo-1,3-dihydro-2H-pyrrolo[3,4-c]pyridin-2-yl]benzonitrile]",56
14,"COc1ccccc1-c1nccc2c1CN(c1ccc(C)cc1)C2=O [Example 23, 4-(2-methoxyphenyl)-2-(4-methylphenyl)-2,3-dihydro-1H-pyrrolo[3,4-c]pyridin-1-one]",99
15,"COc1ccc(N2Cc3c(ccnc3-c3ccccc3OC)C2=O)cc1 [Example 24, 4-(2-methoxyphenyl)-2-(4-methoxyphenyl)-2,3-dihydro-1H-pyrrolo[3,4-c]pyridin-1-one]",89
16,"COc1ccccc1-c1nccc2c1CN(c1ccc(OC(F)F)cc1)C2=O [Example 25, 2-[4-(difluoromethoxy)phenyl]-4-(2-methoxyphenyl)-2,3-dihydro-1H-pyrrolo[3,4-c]pyridin-1-one]",99
17,"COc1ccccc1-c1nccc2c1CN(c1ccc(OC(F)(F)F)nc1)C2=O [Example 26, 4-(2-methoxyphenyl)-2-[6-(trifluoromethoxy)pyridin-3-yl]-2,3-dihydro-1H-pyrrolo[3,4-c]pyridin-1-one]",92
18,"COc1ccccc1-c1nccc2c1CN(c1ccc(OC(F)F)nc1)C2=O [Example 27, 2-[6-(difluoromethoxy)pyridin-3-yl]-4-(2-methoxyphenyl)-2,3-dihydro-1H-pyrrolo[3,4-c]pyridin-1-one]",93
19,"O=C1c2ccnc(-c3ccccc3OC(F)F)c2CN1c1ccc(F)cc1 [Example 28, 4-[2-(difluoromethoxy)phenyl]-2-(4-fluorophenyl)-2,3-dihydro-1H-pyrrolo[3,4-c]pyridin-1-one]",84
20,"COc1ccccc1-c1nccc2c1CN(c1ccc(OC(F)(F)F)cn1)C2=O [Example 29, 4-(2-methoxyphenyl)-2-[5-(trifluoromethoxy)pyridin-2-yl]-2,3-dihydro-1H-pyrrolo[3,4-c]pyridin-1-one]",96
21,"O=C1c2ccnc(-c3ccccc3N3CCOCC3)c2CN1c1ccc(F)cc1 [Example 30, 2-(4-fluorophenyl)-4-[2-(morpholin-4-yl)phenyl]-2,3-dihydro-1H-pyrrolo[3,4-c]pyridin-1-one]",91
22,"CSc1ccccc1-c1nccc2c1CN(c1ccc(F)cc1)C2=O [Example 31, 2-(4-fluorophenyl)-4-[2-(methylsulfanyl)phenyl]-2,3-dihydro-1H-pyrrolo[3,4-c]pyridin-1-one]",93
